From publication PMC8582824, “Targeting DDX3X Helicase Activity with BA103 Shows Promising Therapeutic Effects in Preclinical Glioblastoma Models” (Cancers, 2021)

Assays:
DDX3X helicase activity = target: T1, DDX3X helicase activity (Homo sapiens, UniProt O00571); test: FRET-based DDX3X helicase assay; assay type: biochemical; details: FRET helicase assay, recombinant DDX3X; for IC50: read-out: IC50 ± SD, DDX3X anti-enzymatic (helicase) activity
T1 construct: Recombinant his-tagged human full length DDX3X; His tag; made in house; host or cells: ShuffleT7 E. coli
Method: Recombinant his-tagged human full length DDX3X cloned the E. coli expression vector pET-30a(+). ShuffleT7 E. coli cells were transformed with the plasmid and grown at 37 °C up to OD600 = 0.7. DDX3X expression was induced with 0.5 mM IPTG at 15 °C O/N. Cells were harvested by centrifugation, lysed, and the crude extract was centrifuged at 100,000 g for 60 min at 4 °C in a Beckman centrifuge before being loaded onto a FPLC Ni-NTA column (GE Healthcare, Chicago, IL, USA). The column was equilibrated in Buffer A (50 mM Tris-HCl pH 8.0, 250 mM NaCl, 25 mM Imidazole and 20% glycerol). After extensive washing in Buffer A, the column was eluted with a linear gradient in Buffer A from 25 to 250 mM Imidazole. Proteins in the eluted fractions were visualized on SDS-PAGE and tested for the presence of DDX3X by Western blot with anti-DDX3X A300-475A (Bethyl Laboratories, Montgomery, TX, USA) at 1:4000 dilution in 5% milk. Fractions containing the purest DDX3X protein were pooled and stored at −80 °C.
The dsRNA substrate for the helicase assay was prepared by hybridizing two ss RNA oligonucleotides with the following sequences: • Fluo-FAM 5′ […] 3′ • Qu-BHQ1 5′ […] 3′ • DNA capture 5′ […] 3′.
The sequence in Fluo-FAM complementary to Qu-BHQ1 is underlined. Fluo-FAM carries a 6-carboxyfluorescein fluorophore at its 3′ end, while Qu-BHQ1 carries a Black Hole quencher group at its 5′ end. The DNA capture oligonucleotide is complementary to the Qu-BHQ1 oligonucleotide, but it bears no modifications. A helicase assay using the dsRNA substrate was performed in 20 mM TrisHCl (pH 8), 70 mM KCl, 2 mM MgCl2, 2 mM dithiothreititol, 12 units RNasin (Promega), 2 mM ATP, 50 nM dsRNA, and 100 nM capture strand in 20 μL of reaction volume. The unwinding reaction was started by adding 60 pmols of DDX3X recombinant protein and carried out at 37 °C for 40 min using a LightCycler 480 (Roche, Basel, Switzerland). The fluorescence intensity was recorded every 30 s. Values of fluorescence signal in the presence or in the absence of inhibitor molecules were analyzed by linear interpolation, and the corresponding slope values were used to determine the apparent unwinding rate.
The IC50 values have been calculated from dose–response curves. Data (in triplicate) were plotted and analyzed by least-squares nonlinear regression, according to the method of Marquardt–Levenberg, with the computer program GraphPad Prism 6.0. Data were fitted to the following equation:Eobs = Emax/(1 + (IC50/[I])^n)(1) where E(obs) is the observed enzymatic activity in the presence of each inhibitor dose [I]; E(max) is the maximal enzymatic activity in the absence of the inhibitor; and n is an exponential term to take into account sigmoidal dose–response curves.
All the compounds were tested for their ability to inhibit the helicase activity of DDX3X using a fluorescence resonance energy transfer (FRET)-based assay, as previously described. Values of fluorescence signal in the presence or in the absence of inhibitor molecules were analyzed by linear interpolation (for details, see Methods 2.3.2).

DDX1 = target: T2, DDX1 (Homo sapiens, UniProt Q92499); test: DDX1 helicase activity inhibition; assay type: biochemical; details: for IC50: helicase activity of DDX1, read-out: DDX1 IC50 ± SD
T2 sequence (Q92499 1-740): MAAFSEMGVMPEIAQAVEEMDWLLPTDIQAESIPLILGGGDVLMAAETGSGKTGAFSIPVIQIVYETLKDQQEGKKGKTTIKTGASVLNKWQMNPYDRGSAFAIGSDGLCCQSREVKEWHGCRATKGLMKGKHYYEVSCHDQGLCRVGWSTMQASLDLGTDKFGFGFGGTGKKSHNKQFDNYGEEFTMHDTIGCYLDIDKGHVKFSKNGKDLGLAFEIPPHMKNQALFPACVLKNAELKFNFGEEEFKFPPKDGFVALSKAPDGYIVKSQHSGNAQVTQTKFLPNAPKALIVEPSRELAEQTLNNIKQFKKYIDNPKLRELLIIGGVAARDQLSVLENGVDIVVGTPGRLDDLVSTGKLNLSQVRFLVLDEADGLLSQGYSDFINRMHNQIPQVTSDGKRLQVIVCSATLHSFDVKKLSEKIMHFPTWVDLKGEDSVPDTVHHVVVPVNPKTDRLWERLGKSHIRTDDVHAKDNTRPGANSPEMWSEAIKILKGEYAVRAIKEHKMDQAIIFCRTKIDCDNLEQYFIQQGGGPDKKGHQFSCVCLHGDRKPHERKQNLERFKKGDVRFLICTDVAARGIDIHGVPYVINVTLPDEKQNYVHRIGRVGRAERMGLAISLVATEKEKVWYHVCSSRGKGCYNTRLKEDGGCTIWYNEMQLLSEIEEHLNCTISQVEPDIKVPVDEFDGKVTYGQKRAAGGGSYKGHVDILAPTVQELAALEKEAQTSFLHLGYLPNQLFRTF
Excerpt: To confirm the proposed mechanism of action and the selectivity of our compounds for the helicase binding site, we tested the capability of BA103 to inhibit the ATPase activity of DDX3X and the helicase activity of DDX1, which is another human member of the DEAD-box family.

T1 sequence (O00571 whole entry): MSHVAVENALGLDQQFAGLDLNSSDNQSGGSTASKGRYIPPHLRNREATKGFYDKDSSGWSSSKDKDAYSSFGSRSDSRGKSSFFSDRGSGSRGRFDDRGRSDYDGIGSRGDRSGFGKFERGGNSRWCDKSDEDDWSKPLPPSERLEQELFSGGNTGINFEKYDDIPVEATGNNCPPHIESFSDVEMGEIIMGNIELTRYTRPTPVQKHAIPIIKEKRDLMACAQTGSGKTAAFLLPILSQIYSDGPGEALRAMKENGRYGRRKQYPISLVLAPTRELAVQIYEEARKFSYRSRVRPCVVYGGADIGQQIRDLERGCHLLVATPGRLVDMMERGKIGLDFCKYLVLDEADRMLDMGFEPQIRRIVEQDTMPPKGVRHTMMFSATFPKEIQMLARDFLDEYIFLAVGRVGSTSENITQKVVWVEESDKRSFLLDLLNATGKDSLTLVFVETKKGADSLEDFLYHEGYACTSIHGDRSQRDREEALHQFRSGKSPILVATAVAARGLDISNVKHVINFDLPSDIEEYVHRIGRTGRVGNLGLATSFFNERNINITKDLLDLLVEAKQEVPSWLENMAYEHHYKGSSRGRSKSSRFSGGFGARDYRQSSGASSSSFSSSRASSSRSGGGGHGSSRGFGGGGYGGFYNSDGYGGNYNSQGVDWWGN

Row | Compound | IC50 ± SD, DDX3X anti-enzymatic (helicase) activity (DDX3X helicase activity) | IC50 (DDX3X helicase activity) | SI (Selectivity Index) (DDX1) | IC50 (DDX1)
1 | CCCCc1cn(-c2ccc(NC(=O)Nc3ccccc3C(F)(F)F)cc2)nn1 [BA103, 1-(4-(4-Butyl-1H-1,2,3-triazol-1-yl)phenyl)-3-(2-(trifluoromethyl)phenyl)urea] | submicromolar range | 400 ± 50 nM | >250 | > 100000 nM
2 | CCCCc1cn(-c2ccc(NC(=O)Nc3ccccc3C)cc2)nn1 [Compound 1, reference compound] |  | 300 ± 70 nM | >666 | > 200000 nM

Other lines, results leading:

Row | IC50 ± SD, DDX3X anti-enzymatic (helicase) activity (DDX3X helicase activity) | IC50 (DDX3X helicase activity) | SI (Selectivity Index) (DDX1) | IC50 (DDX1) | Compound
3 | submicromolar range |  |  |  | CCCCn1nnc(-c2ccc(NC(=O)Nc3ccccc3C(F)(F)F)cc2)n1 [Compound 6, 1-(4-(2-Butyl-2H-tetrazol-5-yl)phenyl)-3-(2-(trifluoromethyl)phenyl)urea]
4 | submicromolar range | 100 ± 30 nM | >1000 | > 100000 nM | CC(C)CCc1cn(-c2ccc(NC(=O)Nc3cccc4cnccc34)cn2)nn1 [Compound 10, 1-(6-(4-Isopentyl-1H-1,2,3-triazol-1-yl)pyridin-3-yl)-3-(isoquinolin-5-yl)urea]
5 | submicromolar range | 70 ± 20 nM | 418 | 29300 ± 16800 nM | CCCCc1nnc(-c2ccc(NC(=O)Nc3ccccc3C(F)(F)F)cc2)[nH]1 [Compound 4, 1-(4-(5-Butyl-4H-1,2,4-triazol-3-yl)phenyl)-3-(2-(trifluoromethyl)phenyl)urea]
